Results from PubChem BioAssay AID2060332 (Molecular Pharmacology Branch, DTP, NCI, 2025).
Where “and” joins values, the source holds several entries; their conditions need not be identical. Equal entries are not always repeated.

Tested on: LG0567-F671-PDC multi-cell spheroid viability
Assay: Anticancer human tumor LG0567-F671-PDC patient-derived lung adenocarcinoma cell line growth inhibition [IpAb]
Conditions: for viability, T/C: stronger effect = lower value
Excerpt: Combinatorial screen of targeted agents with ipatasertib and abemaciclib in multi-cell type tumor spheroids
A high-throughput screen of multi-cell type tumor spheroids was designed to identify active combinations of targeted small molecules and ipatasertib or abemaciclib. Complex spheroids include a stromal component modeled by human endothelial cells (HUVEC) and fibroblasts modeled by human mesenchymal stem cells (MSCs). The concentration ranges selected for each drug and investigational agent were based upon clinically achievable concentrations if the clinical Cmax of the agent was known.
Compounds. The drugs and investigational agents: ipatasertib (NSC767898), abemaciclib(NSC768073), selumetinib (NSC741078), trametinib (758246), adavosertib (NSC754352), everolimus (NSC733504), sapanisertib (NSC764658), vemurafenib (NSC761431), venetoclax (NSC766270), copanlisib (NSC809693), apelisib (NSC765974), palbociblib (NSC758247), vemurafenib (NSC761431), dabrafenib (NSC764134), ravoxertinib (NSC781343), BMS-387032 (NSC767048), sotorasib (NSC818433), talazoparib (NSC767125) and afursertib (NSC778305), were obtained from the National Cancer Institute (NCI) Developmental Therapeutics Program Chemical Repository. The FDA-approved anticancer drug set is available from the NCI Developmental Therapeutics Program. […] The stock solutions were prepared in dimethyl sulfoxide (DMSO, Sigma-Aldrich, St. Louis, MO, cat. D2650) at 800-fold the tested concentration and stored at -70 degrees C prior to their use. All drugs and investigational agents were tested over a range starting from a high concentration at or near the clinical Cmax and decreasing in half-log increments. If the clinical Cmax for an agent had not been determined, the highest concentration tested was 10 microM.
NCI60 Cell Culture. NCI60 cell lines were obtained from the NCI Developmental Therapeutics Program Tumor Repository. For each lot of cells, the Repository performed Applied Biosystems AmpFLSTR Identifiler testing with PCR amplification to confirm consistency with the published Identifier STR profile for each cell line. Cells were kept in continuous culture for no more than 20 passages. The optimal seeding densities for each of the cell lines at each time point assessed were determined prior to performing the concentration response studies. Briefly, the NCI60 human tumor lines were grown as monolayers in RPMI 1640 medium supplemented with 10% FBS and 2 mmol/L L-glutamine.
An additional 9 lines were from the NCI60 cell line panel including MDA-MB-231 breast carcinoma, MDA-MB-468 breast carcinoma, MCF7 breast carcinoma, Hs578T breast carcinoma, MALME-3M melanoma, SK-MEL-2 melanoma, SK-OV-3 ovarian carcinoma, DU-145 prostate carcinoma, PC-3 prostate carcinoma, all cell lines along with major genetic alterations are listed on Table 2. Pooled donor human umbilical vein endothelial cells (HUVEC, Lonza, cat. CC-2519) and human mesenchymal stem cells (hMSC, Lonza, cat. PT-2501) were purchased from Lonza (Walkersville, MD).
PDMR cell lines were grown in complete medium (DC medium): Dulbecco's modified Eagle's medium (DMEM)/F12 supplemented with 5% fetal bovine serum (FBS), 2 mM L-glutamine, 100 U/mL penicillin and 100 µg/ml streptomycin, 0.4 µg/ml hydrocortisone, 10 ng/ml epidermal growth factor (EGF) recombinant human protein, 24 µg/mL adenine, and 0.1 mg/mL primocin. During culture from frozen stock vials, PDMR cells were cultured in the same medium containing 10 µM Y-27632 (see Table 3). The PDCs were cultured in complete DMEM/F12 media without 10 microM Y-27632 dihydrochloride for at least two passages prior to the screen. The pooled donor HUVEC and hMSC were cultured in endothelial cell growth medium 2 (PromoCell, Heidelberg, Germany, cat. C-22011) and mesenchymal stem cell growth medium 2 (PromoCell, cat. C-28009), respectively. For all experiments, HUVEC and hMSC were used at passages </=5.
[…]

[1] = curve of first compound, second compound 0.1 µM
[2] = curve of first compound, second compound 0.316 µM
[3] = curve of first compound, second compound 1 µM
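Also: viability read after 7 days of drug exposure.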
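For viability, T/C in this document: 100% = DMSO vehicle control luminescence.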

Question: Which results are given for `CC1(C)CCC(CN2CCN(c3ccc(C(=O)NS(=O)(=O)c4ccc(NCC5CCOCC5)c([N+](=O)[O-])c4)c(Oc4cnc5[nH]ccc5c4)c3)CC2)=C(c2ccc(Cl)cc2)C1` + CCN1CCN(Cc2ccc(Nc3ncc(F)c(-c4cc(F)c5nc(C)n(C(C)C)c5c4)n3)nc2)CC1?
Answer: IC50 (curve of first compound, second compound 0.01 µM): 7190 nM; IC50 (curve of first compound, second compound 0.0316 µM): 5800 nM; IC50 [1]: 5910 nM; IC50 [2]: 4880 nM; IC50 [3]: 4690 nM; viability, T/C (second compound 0.01 µM, first compound 0.0316 µM): 96.5%; viability, T/C (second compound 0.01 µM, first compound 0.1 µM): 123%; viability, T/C (second compound 0.01 µM, first compound 0.316 µM): 106%; viability, T/C (second compound 0.01 µM, first compound 1 µM): 105%; viability, T/C (second compound 0.01 µM, first compound 3.16 µM): 119%; viability, T/C (second compound 0.01 µM, first compound 10 µM): 25.9%; viability, T/C (second compound 0.0316 µM, first compound 0.0316 µM): 63.6%; viability, T/C (second compound 0.0316 µM, first compound 0.1 µM): 95.8%; viability, T/C (second compound 0.0316 µM, first compound 0.316 µM): 87.1%; viability, T/C (second compound 0.0316 µM, first compound 1 µM): 72.2%; viability, T/C (second compound 0.0316 µM, first compound 3.16 µM): 83.2%; viability, T/C (second compound 0.0316 µM, first compound 10 µM): 22.6%; viability, T/C (second compound 0.1 µM, first compound 0.0316 µM): 80.5%; viability, T/C (second compound 0.1 µM, first compound 0.1 µM): 86.9%; viability, T/C (second compound 0.1 µM, first compound 0.316 µM): 83.2%; viability, T/C (second compound 0.1 µM, first compound 1 µM): 84.5%; viability, T/C (second compound 0.1 µM, first compound 3.16 µM): 83%; viability, T/C (second compound 0.1 µM, first compound 10 µM): 22.2%; viability, T/C (second compound 0.316 µM, first compound 0.0316 µM): 69.6%; viability, T/C (second compound 0.316 µM, first compound 0.1 µM): 76.1%; viability, T/C (second compound 0.316 µM, first compound 0.316 µM): 80.8%; viability, T/C (second compound 0.316 µM, first compound 1 µM): 76.9%; viability, T/C (second compound 0.316 µM, first compound 3.16 µM): 73.3%; viability, T/C (second compound 0.316 µM, first compound 10 µM): 11.4%; viability, T/C (second compound 1 µM, first compound 0.0316 µM): 69.6%; viability, T/C (second compound 1 µM, first compound 0.1 µM): 80.3%; viability, T/C (second compound 1 µM, first compound 0.316 µM): 64%; viability, T/C (second compound 1 µM, first compound 1 µM): 68.8%; viability, T/C (second compound 1 µM, first compound 3.16 µM): 67.1%; viability, T/C (second compound 1 µM, first compound 10 µM): 17.5%

Question: `CC(C)(C)c1cnc(CSc2cnc(NC(=O)C3CCNCC3)s2)o1` + CC(C)NCC(C(=O)N1CCN(c2ncnc3c2C(C)CC3O)CC1)c1ccc(Cl)cc1 was tested. Which IC50 [1] did it give?
Answer: 169 nM

Question: What about the IC50 [2] of the same compound?
Answer: 137 nM

Question: And the IC50 [3]?
Answer: 158 nM

Question: What about the IC50 (curve of first compound, second compound 3.16 µM) of the same compound?
Answer: 152 nM

Question: And the IC50 (curve of first compound, second compound 10 µM)?
Answer: 148 nM

Question: And the viability, T/C (second compound 0.1 µM, first compound 0.00949 µM)?
Answer: 117%

Question: What about the viability, T/C (second compound 0.1 µM, first compound 0.03 µM) of the same compound?
Answer: 110%

Question: And the viability, T/C (second compound 0.1 µM, first compound 0.0949 µM)?
Answer: 96.3%

Question: And the viability, T/C (second compound 0.1 µM, first compound 0.3 µM)?
Answer: 3.55%

Question: What about the viability, T/C (second compound 0.1 µM, first compound 0.949 µM) of the same compound?
Answer: 1.37%

Question: And the viability, T/C (second compound 0.1 µM, first compound 3 µM)?
Answer: 0.93%

Question: And the viability, T/C (second compound 0.316 µM, first compound 0.00949 µM)?
Answer: 73.6%

Question: And the viability, T/C (second compound 0.316 µM, first compound 0.03 µM)?
Answer: 111%

Question: And the viability, T/C (second compound 0.316 µM, first compound 0.0949 µM)?
Answer: 72.7%

Question: And the viability, T/C (second compound 0.316 µM, first compound 0.3 µM)?
Answer: 2.55%

Question: And the viability, T/C (second compound 0.316 µM, first compound 0.949 µM)?
Answer: 1.26%

Question: What about the viability, T/C (second compound 0.316 µM, first compound 3 µM) of the same compound?
Answer: 0.62%

Question: What about the viability, T/C (second compound 1 µM, first compound 0.00949 µM) of the same compound?
Answer: 95.6%

Question: And the viability, T/C (second compound 1 µM, first compound 0.03 µM)?
Answer: 117%

Question: What about the viability, T/C (second compound 1 µM, first compound 0.0949 µM) of the same compound?
Answer: 88.8%

Question: What about the viability, T/C (second compound 1 µM, first compound 0.3 µM) of the same compound?
Answer: 2.06%

Question: What about the viability, T/C (second compound 1 µM, first compound 0.949 µM) of the same compound?
Answer: 0.88%

Question: And the viability, T/C (second compound 1 µM, first compound 3 µM)?
Answer: 0.72%

Question: What about the viability, T/C (second compound 3.16 µM, first compound 0.00949 µM) of the same compound?
Answer: 97.9%

Question: And the viability, T/C (second compound 3.16 µM, first compound 0.03 µM)?
Answer: 113%

Question: What about the viability, T/C (second compound 3.16 µM, first compound 0.0949 µM) of the same compound?
Answer: 82.9%

Question: What about the viability, T/C (second compound 3.16 µM, first compound 0.3 µM) of the same compound?
Answer: 2.53%

Question: What about the viability, T/C (second compound 3.16 µM, first compound 0.949 µM) of the same compound?
Answer: 0.89%

Question: What about the viability, T/C (second compound 3.16 µM, first compound 3 µM) of the same compound?
Answer: 0.79%

Question: What about the viability, T/C (second compound 10 µM, first compound 0.00949 µM) of the same compound?
Answer: 79.2%

Question: What about the viability, T/C (second compound 10 µM, first compound 0.03 µM) of the same compound?
Answer: 74.1%

Question: What about the viability, T/C (second compound 10 µM, first compound 0.0949 µM) of the same compound?
Answer: 88%

Question: What about the viability, T/C (second compound 10 µM, first compound 0.3 µM) of the same compound?
Answer: 1.97%

Question: And the viability, T/C (second compound 10 µM, first compound 0.949 µM)?
Answer: 0.87%

Question: And the viability, T/C (second compound 10 µM, first compound 3 µM)?
Answer: 0.7%

Question: How did the viability, T/C (compound 0.00949 µM) turn out when `Cn1cnc2c(F)c(Nc3ccc(Br)cc3Cl)c(C(=O)NOCCO)cc21` was run?
Answer: 54.7% and 48.5%

Question: And the viability, T/C (compound 0.03 µM)?
Answer: 33% and 42.6%

Question: And the viability, T/C (compound 0.0949 µM)?
Answer: 27.1% and 34.2%

Question: What about the viability, T/C (compound 0.3 µM) of the same compound?
Answer: 25.2% and 24.2%

Question: What about the viability, T/C (compound 0.949 µM) of the same compound?
Answer: 18.1% and 21.6%

Question: And the viability, T/C (compound 3 µM)?
Answer: 16.5% and 16%

Question: And the IC50 (curve of compound)?
Answer: 11.9 nM and < 9.49 nM
